Test results as given in patent US20140100156A1 (SANOFI, priority 2012, published 2014).

Legend:
[1] = assay type: physicochemical; conditions: pH 4.5
Description: Prior to the testing of solubility and stability of a peptide batch, its content was determined. Therefore, two parameters were investigated, its purity (HPLC-UV) and the amount of salt load of the batch (ion chromatography). Since synthesized peptides contain primarily trifluoroacetate anions, only anion chromatography was performed.
. Therefore, solutions from solid samples were prepared in different buffer systems with a concentration of 1.0 mg/mL compound based on the previously determined content. HPLC-UV was performed after 2 h of gentle agitation from the supernatant, which was obtained by 20 min of centrifugation at 4000 rpm.
This analysis also served as starting point (t0) for the stability testing.
Instrument: Agilent 1100, column: X-Bridge C18 3.5 μm 2.1×150 mm (Waters), eluent: A: H20+500 ppm TFA/B: Methanol, flow: 0.55 mL/min, gradient: 0-5 min: 10-60% B; 5-15 min: 60-99% B; detection: 214 nm.

[2] = target: T1, human glucagon receptor (Homo sapiens, UniProt P47871); experiment: cAMP response (HTRF) of HEK-293 cells stably expressing human glucagon receptor; assay type: cell-based; conditions: Table 5, read-out: EC50 hGlucagon-R
T1 construct: expressed in transfected cells; host or cells: HEK-293
T1 sequence (P47871 26-477): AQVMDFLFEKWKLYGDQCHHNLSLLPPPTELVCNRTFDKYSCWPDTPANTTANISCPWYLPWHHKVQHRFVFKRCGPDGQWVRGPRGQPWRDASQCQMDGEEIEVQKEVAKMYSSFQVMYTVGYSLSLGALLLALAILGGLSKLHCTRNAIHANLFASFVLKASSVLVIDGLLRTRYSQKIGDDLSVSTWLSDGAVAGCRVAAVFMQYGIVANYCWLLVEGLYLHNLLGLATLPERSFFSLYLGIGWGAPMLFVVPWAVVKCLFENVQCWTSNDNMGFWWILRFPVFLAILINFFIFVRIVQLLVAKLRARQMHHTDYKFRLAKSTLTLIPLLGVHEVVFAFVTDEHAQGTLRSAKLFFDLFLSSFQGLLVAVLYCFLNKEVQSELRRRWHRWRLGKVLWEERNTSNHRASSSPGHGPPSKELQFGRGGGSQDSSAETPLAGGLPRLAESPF
Description: (§1) cAMP content of cells was determined using a kit from Cisbio Corp. (cat. no. 62AM4PEC) based on HTRF (Homogeneous Time Resolved Fluorescence). For preparation, cells were split into T175 culture flasks and grown overnight to near confluency in medium (DMEM/10% FBS). Medium was then removed and cells washed with PBS lacking calcium and magnesium, followed by proteinase treatment with accutase (Sigma-Aldrich cat. no. A6964). Detached cells were washed and resuspended in assay buffer (1×HBSS; 20 mM HEPES, 0.1% BSA, 2 mM IBMX) and cellular density determined. […] For measurement, 25 μl of test compound in assay buffer was added to the wells, followed by incubation for 30 minutes at room temperature.

[3] = target: T2, human GLP-1 receptor (Homo sapiens, UniProt P43220); experiment: cAMP response (HTRF) of HEK-293 cells stably expressing human GLP-1 receptor; assay type: cell-based; conditions: Table 5, read-out: EC50 hGLP-1R
T2 construct: expressed in transfected cells; host or cells: HEK-293
T2 sequence (P43220 24-463): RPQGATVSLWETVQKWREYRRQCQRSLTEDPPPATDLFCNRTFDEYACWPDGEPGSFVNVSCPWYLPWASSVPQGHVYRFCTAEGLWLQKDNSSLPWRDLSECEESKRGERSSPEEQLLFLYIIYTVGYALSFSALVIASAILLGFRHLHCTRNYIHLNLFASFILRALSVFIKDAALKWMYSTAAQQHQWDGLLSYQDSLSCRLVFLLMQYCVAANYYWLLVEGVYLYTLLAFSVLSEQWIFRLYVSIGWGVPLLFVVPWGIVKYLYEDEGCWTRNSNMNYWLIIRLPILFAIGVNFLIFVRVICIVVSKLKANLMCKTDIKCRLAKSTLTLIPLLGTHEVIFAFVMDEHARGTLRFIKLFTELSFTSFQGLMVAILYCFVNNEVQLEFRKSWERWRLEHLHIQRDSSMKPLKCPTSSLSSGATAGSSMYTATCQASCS
Description: as §1

SMILES	Solubility pH4.5 [1] [mg/ml]	EC50 [2] [pM]	EC50 [3] [pM]
CCCCCCCCCCCCCCCC(=O)N[C@@H](CCC(=O)NCCCC[C@H](NC(=O)[C@H](C)NC(=O)[C@H](C)NC(=O)[C@H](CCC(N)=O)NC(=O)CNC(=O)[C@H](CCC(=O)O)NC(=O)[C@H](CC(C)C)NC(=O)[C@H](Cc1ccc(O)cc1)NC(=O)[C@H](CO)NC(=O)[C@H](CO)NC(=O)[C@@H](NC(=O)[C@H](CC(=O)O)NC(=O)[C@H](CO)NC(=O)[C@@H](NC(=O)[C@H](Cc1ccccc1)NC(=O)[C@@H](NC(=O)CNC(=O)[C@H](CCC(=O)O)NC(=O)[C@H](C)NC(=O)[C@@H](N)Cc1cnc[nH]1)[C@@H](C)O)[C@@H](C)O)C(C)C)C(=O)N[C@@H](CCC(=O)O)C(=O)N[C@@H](Cc1ccccc1)C(=O)N[C@H](C(=O)N[C@@H](C)C(=O)N[C@@H](Cc1c[nH]c2ccccc12)C(=O)N[C@@H](CC(C)C)C(=O)N[C@H](C(=O)N[C@@H](CCCNC(=N)N)C(=O)NCC(=O)N[C@@H](CCCNC(=N)N)C(=O)NCC(=O)O)C(C)C)[C@@H](C)CC)C(=O)O [compound 195]	0		
CCCCCCCCCCCCCCCC(=O)N[C@@H](CCC(=O)NCCCC[C@H](NC(=O)[C@H](CCC(N)=O)NC(=O)[C@H](CCCCN)NC(=O)[C@H](CO)NC(=O)[C@H](CC(C)C)NC(=O)[C@H](CC(=O)O)NC(=O)[C@H](CO)NC(=O)[C@@H](NC(=O)[C@H](Cc1ccccc1)NC(=O)[C@@H](NC(=O)CNC(=O)[C@H](Cc1c[nH]cn1)NC(=O)[C@H](CO)NC(=O)[C@@H](N)Cc1c[nH]cn1)[C@@H](C)O)[C@@H](C)O)C(=O)N[C@@H](CCC(=O)O)C(=O)N[C@@H](CO)C(=O)N[C@@H](CCCNC(=N)N)C(=O)N[C@@H](CCCNC(=N)N)C(=O)N[C@@H](C)C(=O)N[C@@H](CCC(N)=O)C(=O)N[C@@H](CC(=O)O)C(=O)N[C@@H](Cc1ccccc1)C(=O)N[C@H](C(=O)N[C@@H](CCC(=O)O)C(=O)N[C@@H](Cc1c[nH]c2ccccc12)C(=O)N[C@@H](CC(C)C)C(=O)N[C@@H](CCCCN)C(=O)N[C@@H](C)C(=O)NCC(=O)NCC(=O)N1CCC[C@H]1C(=O)N[C@@H](CO)C(=O)N[C@@H](CO)C(=O)NCC(=O)N[C@@H](C)C(=O)N1CCC[C@H]1C(=O)N1CCC[C@H]1C(=O)N1CCC[C@H]1C(=O)N[C@@H](CO)C(N)=O)[C@@H](C)CC)C(=O)O [compound 208]		1.3	2
